A short description of test [1]: Inhibition of Saccharomyces cerevisiae alpha-glucosidase using PNP-G as substrate incubated for 20 mins followed by substrate addition.
Test [2] relates to Staphylococcus epidermidis. Kind of test: Antibacterial activity against Staphylococcus albus ATCC 8032 by microplate assay method. It is filed as functional, organism-based.
In test [3] the test system is Staphylococcus aureus. The test can be described thus: Antibacterial activity against Staphylococcus aureus ATCC 25923 by microplate assay method. It is filed as functional, organism-based.
The next test has as its system Vibrio parahaemolyticus. The test can be described thus: Antibacterial activity against Vibrio parahaemolyticus ATCC 17749 by microplate assay method. Format: functional, organism-based.
The subject of test [4] is Staphylococcus aureus. The test can be described thus: Antibacterial activity against methicillin-resistant Staphylococcus aureus ATCC 33591 by microplate assay method. It is filed as functional, organism-based.
A further test deals with Vibrio alginolyticus. Kind of test: Antibacterial activity against Vibrio alginolyticus ATCC 17802 by microplate assay method. Format: functional, organism-based.

The source made the active and inactive calls. The calls are words filed in the database; no cut-off is given here.

For 16 molecules, IC50 and Activity results are on record in ChEMBL document CHEMBL4387791, “Bioactive Polyketide Derivatives from the Mangrove-Derived Fungus Daldinia eschscholtzii HJ004” (J Nat Prod, 2019).

Broadly, the IC50 is the midpoint of a concentration-inhibition curve. Low values mean greater potency, high ones weaker potency. Take `CC(=O)OC/C=C(\C)[C@@H]1OC(=O)C(C)(C)[C@@H](O)[C@H]1C`: the IC50 in test [1] was 240 µM. Also, the result (in test [2]; in the test on Staphylococcus aureus [3]; in the test on Vibrio parahaemolyticus; in the test with Staphylococcus aureus [4]; with Vibrio alginolyticus) was inactive.

On to `COc1cccc2c1[C@H](O)CCC2=O`, for which the IC50 in test [1] is 90 µM. Moreover, the outcome (in test [2]; in the test with Staphylococcus aureus [3]; in the test on Vibrio parahaemolyticus; in the test with Staphylococcus aureus [4]; in the test with Vibrio alginolyticus) was inactive.

`CCCc1cc(=O)c2c(OC)cccc2o1` had a concentration for half-maximal inhibition (IC50) in test [1] of 84 µM. In addition, the result (in test [2]; with Staphylococcus aureus [3]; in the test on Vibrio parahaemolyticus; with Staphylococcus aureus [4]; with Vibrio alginolyticus) was inactive.

In the case of `C/C(=C\CO)[C@@H]1OC(=O)C(C)(C)[C@@H](O)[C@H]1C`, the IC50 in test [1] is 20 µM. The outcome (in test [2]; in the test with Staphylococcus aureus [3]; with Vibrio parahaemolyticus; in the test with Staphylococcus aureus [4]; in the test on Vibrio alginolyticus) was inactive.

In test [1], `CCc1c(O)cc2c(=O)oc(C)c(C)c(=O)c2c1OC` came in with an IC50 of 54 µM. The result (in test [2]; in the test with Staphylococcus aureus [3]; in the test on Vibrio parahaemolyticus; with Staphylococcus aureus [4]; in the test on Vibrio alginolyticus) was inactive.

In test [1], `CCc1c(OC)cc2c(=O)c(C)c(C)oc2c1O` showed an IC50 of 100 µM. Also, the result (in test [2]; in the test with Staphylococcus aureus [3]; with Vibrio parahaemolyticus; in the test with Staphylococcus aureus [4]; in the test with Vibrio alginolyticus) was inactive.

For the molecule `COc1cccc2c1C(=O)CC(C)O2` (stereo unspecified), the IC50 in test [1] was determined as 15 µM. Besides, the result (in test [2]; in the test with Staphylococcus aureus [3]; in the test on Vibrio parahaemolyticus; in the test on Staphylococcus aureus [4]; in the test with Vibrio alginolyticus) was inactive.

Turning to `CCc1ccc2c(c1O)C(=O)[C@](O)(CC)[C@@H](O)C2`, 38 µM corresponded to half-maximal inhibition in test [1] (IC50). For the same molecule, the result (in test [2]; in the test with Staphylococcus aureus [3]; in the test with Vibrio parahaemolyticus; in the test with Staphylococcus aureus [4]; in the test with Vibrio alginolyticus) was inactive.

As for `COc1cc(O)cc2oc(C)c(C)c(=O)c12`, the half-inhibitory concentration (IC50) in test [1] was determined as 13 µM. Besides, the result (in test [2]; with Staphylococcus aureus [3]; in the test on Vibrio parahaemolyticus; with Staphylococcus aureus [4]; with Vibrio alginolyticus) was inactive.

For the molecule `Cc1cc2c(c(O)c1C)C(=O)C[C@@H](O)[C@H]2O` (relative stereo), the IC50 in test [1] worked out at 21 µM. Moreover, the outcome (in test [2]; with Staphylococcus aureus [3]; in the test with Vibrio parahaemolyticus; with Staphylococcus aureus [4]; in the test with Vibrio alginolyticus) was inactive.

Molecule `C/C=C(\C)[C@@H]1OC(=O)C(C)(C)[C@H](O)[C@H]1C` displayed an IC50 in test [1] of 31 µM. Also, the outcome (in test [2]; in the test with Staphylococcus aureus [3]; in the test with Vibrio parahaemolyticus; in the test on Staphylococcus aureus [4]; with Vibrio alginolyticus) was inactive.

The molecule `C/C=C(\C)[C@@H]1OC(=O)C(C)(C)[C@@H](O)[C@H]1C` came in with an IC50 in test [1] of 16 µM. In addition, the outcome (in test [2]; in the test with Staphylococcus aureus [3]; in the test on Vibrio parahaemolyticus; in the test with Staphylococcus aureus [4]; in the test with Vibrio alginolyticus) was inactive.

As for `C[C@H]1O[C@H](O[C@H]2[C@H](O)[C@@H](O)[C@@H](O[C@H]3[C@H](O)[C@@H](O)C(O)O[C@@H]3CO)O[C@@H]2CO)[C@H](O)[C@@H](O)[C@@H]1N[C@H]1C=C(CO)[C@@H](O)[C@H](O)[C@H]1O` (stereo partly specified) [ACARBOSE], in test [1], the IC50 was 3 µM. In other words, the single-digit micromolar range.

Turning to `CCc1c(OC)cc2c(c1O)C(=O)[C@H](C)[C@@H](C)[C@H]2O`, the IC50 in test [1] came out at 155 µM. In addition, the result (in test [2]; with Staphylococcus aureus [3]; with Vibrio parahaemolyticus; in the test on Staphylococcus aureus [4]; in the test on Vibrio alginolyticus) was inactive.

In turn, `O=C1CC[C@H](O)c2cccc(O)c21` yielded a concentration for half-maximal inhibition (IC50) in test [1] of 70 µM. The result (in test [2]; in the test on Staphylococcus aureus [3]; in the test on Vibrio parahaemolyticus; in the test with Staphylococcus aureus [4]; in the test on Vibrio alginolyticus) was inactive.

In turn, `CCc1c(OC)cc2c(c1O)C(=O)[C@H](C)[C@@H](C)[C@@H]2O` gave an IC50 in test [1] of 35 µM. In addition, the result (in test [2]; with Staphylococcus aureus [3]; in the test on Vibrio parahaemolyticus; with Staphylococcus aureus [4]; in the test with Vibrio alginolyticus) was inactive.
